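Briefly, cells in 96-well plates were exposed to five compound concentrations for 48 h, and endpoints were estimated by linear interpolation. Abbreviation: GI50, concentration required for 50% inhibition of growth. TGI marks complete inhibition of growth.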
Key:
Experiment in all cases: NCI-60 cell line screen, 48 h
HCC-2998 colon = tested on: HCC-2998 colon
A498 renal = tested on: A498 renal
TK-10 renal = tested on: TK-10 renal
DU-145 prostate = tested on: DU-145 prostate
MDA-MB-231 breast = tested on: MDA-MB-231 breast
OVCAR-3 ovarian = tested on: OVCAR-3 ovarian
SR leukemia = tested on: SR leukemia
HS 578T breast = tested on: HS 578T breast
COLO 205 colon = tested on: COLO 205 colon
NCI/ADR-RES ovarian = tested on: NCI/ADR-RES ovarian
T-47D breast = tested on: T-47D breast
IGROV1 ovarian = tested on: IGROV1 ovarian
786-0 renal = tested on: 786-0 renal
K-562 leukemia = tested on: K-562 leukemia
LOX IMVI melanoma = tested on: LOX IMVI melanoma
MOLT-4 leukemia = tested on: MOLT-4 leukemia
NCI-H522 lung = tested on: NCI-H522 lung
M14 melanoma = tested on: M14 melanoma
SF-539 CNS = tested on: SF-539 CNS
SN12C renal = tested on: SN12C renal
SF-295 CNS = tested on: SF-295 CNS
BT-549 breast = tested on: BT-549 breast
SW-620 colon = tested on: SW-620 colon
HT29 colon = tested on: HT29 colon
HCT-116 colon = tested on: HCT-116 colon
OVCAR-5 ovarian = tested on: OVCAR-5 ovarian
CCRF-CEM leukemia = tested on: CCRF-CEM leukemia
RXF 393 renal = tested on: RXF 393 renal
NCI-H226 lung = tested on: NCI-H226 lung
HOP-92 NSCLC = tested on: HOP-92 NSCLC
MDA-MB-435 = tested on: MDA-MB-435
HCT-15 colon = tested on: HCT-15 colon
NCI-H460 lung = tested on: NCI-H460 lung
SNB-19 CNS = tested on: SNB-19 CNS
ACHN renal = tested on: ACHN renal
MCF7 breast = tested on: MCF7 breast
SK-MEL-28 melanoma = tested on: SK-MEL-28 melanoma
SNB-75 CNS = tested on: SNB-75 CNS
SK-MEL-2 melanoma = tested on: SK-MEL-2 melanoma
UO-31 renal = tested on: UO-31 renal
OVCAR-4 ovarian = tested on: OVCAR-4 ovarian
KM12 colon = tested on: KM12 colon
HOP-62 NSCLC = tested on: HOP-62 NSCLC
SK-MEL-5 melanoma = tested on: SK-MEL-5 melanoma
SF-268 CNS = tested on: SF-268 CNS
EKVX NSCLC = tested on: EKVX NSCLC
MALME-3M melanoma = tested on: MALME-3M melanoma
SK-OV-3 ovarian = tested on: SK-OV-3 ovarian
RPMI-8226 leukemia = tested on: RPMI-8226 leukemia
U251 CNS = tested on: U251 CNS
CAKI-1 renal = tested on: CAKI-1 renal
UACC-257 melanoma = tested on: UACC-257 melanoma
OVCAR-8 ovarian = tested on: OVCAR-8 ovarian
NCI-H23 lung = tested on: NCI-H23 lung
A549 NSCLC = tested on: A549 NSCLC
PC-3 prostate = tested on: PC-3 prostate
HL-60(TB) leukemia = tested on: HL-60(TB) leukemia
UACC-62 melanoma = tested on: UACC-62 melanoma

CN(C)C/C=C/C(=O)Nc1cc2c(Nc3ccc(F)c(Cl)c3F)ncnc2cc1OCCOC(F)F
GI50 (HCC-2998 colon): 1160 nM | TGI (HCC-2998 colon): 2680 nM | GI50 (A498 renal): 282 nM | TGI (A498 renal): 1910 nM | GI50 (TK-10 renal): < 10 nM | TGI (TK-10 renal): 738 nM | GI50 (DU-145 prostate): 191 nM | TGI (DU-145 prostate): 3340 nM | GI50 (MDA-MB-231 breast): 472 nM | TGI (MDA-MB-231 breast): 6530 nM | GI50 (OVCAR-3 ovarian): 101 nM | TGI (OVCAR-3 ovarian): 1730 nM | GI50 (SR leukemia): 496 nM | TGI (SR leukemia): 4830 nM | GI50 (HS 578T breast): 764 nM | TGI (HS 578T breast): 6190 nM | GI50 (COLO 205 colon): 1030 nM | TGI (COLO 205 colon): 3550 nM | GI50 (NCI/ADR-RES ovarian): 499 nM | TGI (NCI/ADR-RES ovarian): 3740 nM | GI50 (T-47D breast): < 12.7 nM | TGI (T-47D breast): 458 nM | GI50 (IGROV1 ovarian): < 10 nM | TGI (IGROV1 ovarian): 390 nM | GI50 (786-0 renal): 348 nM | TGI (786-0 renal): 3560 nM | GI50 (K-562 leukemia): 519 nM | TGI (K-562 leukemia): 11300 nM | GI50 (LOX IMVI melanoma): 958 nM | TGI (LOX IMVI melanoma): 2250 nM | GI50 (MOLT-4 leukemia): 1110 nM | TGI (MOLT-4 leukemia): 5430 nM | GI50 (NCI-H522 lung): < 15.2 nM | TGI (NCI-H522 lung): 1350 nM | GI50 (M14 melanoma): 1870 nM | TGI (M14 melanoma): 6200 nM | GI50 (SF-539 CNS): 999 nM | TGI (SF-539 CNS): 3020 nM | GI50 (SN12C renal): 136 nM | TGI (SN12C renal): 4520 nM | GI50 (SF-295 CNS): 1720 nM | TGI (SF-295 CNS): 9860 nM | GI50 (BT-549 breast): 1570 nM | TGI (BT-549 breast): 6860 nM | GI50 (SW-620 colon): 1240 nM | TGI (SW-620 colon): 9580 nM | GI50 (HT29 colon): 422 nM | TGI (HT29 colon): 5000 nM | GI50 (HCT-116 colon): 625 nM | TGI (HCT-116 colon): 2980 nM | GI50 (OVCAR-5 ovarian): 136 nM | TGI (OVCAR-5 ovarian): 13700 nM | GI50 (CCRF-CEM leukemia): 2470 nM | TGI (CCRF-CEM leukemia): 13300 nM | GI50 (RXF 393 renal): 241 nM | TGI (RXF 393 renal): 1600 nM | GI50 (NCI-H226 lung): 1310 nM | TGI (NCI-H226 lung): 4670 nM | GI50 (HOP-92 NSCLC): 58.5 nM | TGI (HOP-92 NSCLC): 1130 nM | GI50 (MDA-MB-435): 1170 nM | TGI (MDA-MB-435): 6630 nM | GI50 (HCT-15 colon): 491 nM | TGI (HCT-15 colon): 2960 nM | GI50 (NCI-H460 lung): 2340 nM | TGI (NCI-H460 lung): 10500 nM | GI50 (SNB-19 CNS): 1570 nM | TGI (SNB-19 CNS): 11600 nM | GI50 (ACHN renal): < 10 nM | TGI (ACHN renal): 1080 nM | GI50 (MCF7 breast): 1240 nM | TGI (MCF7 breast): 10100 nM | GI50 (SK-MEL-28 melanoma): 2290 nM | TGI (SK-MEL-28 melanoma): 9590 nM | GI50 (SNB-75 CNS): 162 nM | TGI (SNB-75 CNS): 2470 nM | GI50 (SK-MEL-2 melanoma): 1460 nM | TGI (SK-MEL-2 melanoma): 3360 nM | GI50 (UO-31 renal): < 10 nM | TGI (UO-31 renal): 1780 nM | GI50 (OVCAR-4 ovarian): 1180 nM | TGI (OVCAR-4 ovarian): 10700 nM | GI50 (KM12 colon): 2040 nM | TGI (KM12 colon): 8230 nM | GI50 (HOP-62 NSCLC): 1310 nM | TGI (HOP-62 NSCLC): 5610 nM | GI50 (SK-MEL-5 melanoma): 1600 nM | TGI (SK-MEL-5 melanoma): 3390 nM | GI50 (SF-268 CNS): 710 nM | TGI (SF-268 CNS): 3890 nM | GI50 (EKVX NSCLC): < 30.2 nM | TGI (EKVX NSCLC): 3000 nM | GI50 (MALME-3M melanoma): 1270 nM | TGI (MALME-3M melanoma): 2940 nM | GI50 (SK-OV-3 ovarian): < 10 nM | GI50 (RPMI-8226 leukemia): 921 nM | TGI (RPMI-8226 leukemia): 4680 nM | GI50 (U251 CNS): 1990 nM | TGI (U251 CNS): 9230 nM | GI50 (CAKI-1 renal): < 10 nM | TGI (CAKI-1 renal): 1130 nM | GI50 (UACC-257 melanoma): 2180 nM | TGI (UACC-257 melanoma): 10300 nM | GI50 (OVCAR-8 ovarian): 972 nM | TGI (OVCAR-8 ovarian): 9900 nM | GI50 (NCI-H23 lung): 1230 nM | TGI (NCI-H23 lung): 3820 nM | GI50 (A549 NSCLC): 596 nM | TGI (A549 NSCLC): 10200 nM | GI50 (PC-3 prostate): 1900 nM | TGI (PC-3 prostate): 9090 nM | GI50 (HL-60(TB) leukemia): 1740 nM | TGI (HL-60(TB) leukemia): 6960 nM | GI50 (UACC-62 melanoma): 1450 nM | TGI (UACC-62 melanoma): 4460 nM
